Source: patent publication US12138243B2, “Antiviral use of FABP4 modulating compounds” (CRESCENTA BIOSCIENCES, priority 2021, dated 2024)

System: human coronavirus OC43
Assay: Antiviral activity: human coronavirus OC43 replication in differentiated 3T3-L1 mouse adipocyte cells, viral titers by TCID50 assay in MRC5 cells
Type: cell-based
Settings: median fold reduction of virus titers vs vehicle control (DMSO); final compound concentration 10 µM; medium collected 24 hours after infection; differentiated 3T3-L1 adipocytes, 0.05 TCID50 per cell
Protocol: Activity of compounds affecting viral replication and disease was tested against coronavirus replication in differentiated 3T3-L1 mouse adipocyte cells using human coronavirus OC43 as a model virus. 3T3-L1 preadipocytes (ATCC) were routinely cultured in a growth medium composed of DMEM high-glucose (Sigma), 10% FBS (Gibco), 10 U/ml penicillin and 10 μg/ml streptomycin (P/S; Gibco) in a standard cell culture incubator at 37° C. To induce adipogenic differentiation, a confluent layer of 3T3-L1 cells were incubated with the growth medium containing 2 μM rosiglitazone, 1 μM dexamethasone, 500 μM IBMX, and 1 μg/ml insulin (Sigma). Forty-eight (48) hours later (on day 2) and on days 4 and 6, medium of the cells was replaced with fresh medium containing 1 μg/ml insulin. On days 8 and 10, the medium was refreshed with regular growth medium and addition of insulin was omitted. On day 11 or 12, the cells were infected with human coronavirus OC43 (ATCC) at a multiplicity of 0.05 TCID50 (tissue-culture infectious-dose 50) per cell in DMEM containing 2% heat-inactivated FBS and P/S. One hour after infection, medium of the cells were replaced with fresh medium containing either the indicated FABP4 modulating compounds or the vehicle in which the compounds were dissolved (DMSO). The final compound concentration was 10 µM and final concentration of DMSO was 0.1% (v/v). The cells were incubated at 35° C. during the course of infection and compound treatment. Twenty-four hours after infection, medium of the cells was collected, cleared by centrifugation at 2,000g for 5 minutes, and frozen at −80 degrees C. until further processing. The viral titers in the samples were determined by TCID50 assay in MRC5 cells (ATCC) using Reed-Munch method, and median fold reduction of virus titers in compound treated cells compared to vehicle control was calculated.

| SMILES | Antiviral activity group |
| --- | --- |
| CCCCCCC1CCc2c(n(Cc3ccccc3C)c3c(C(=O)O)cccc23)C1 (centres unmarked) [Compound 10, 2-hexyl-9-[(2-methylphenyl)methyl]-2,3,4,9-tetrahydro-1H-carbazole-8-carboxylic acid] | A (reduced virus titers >100-fold) |
| CCCCC1CCCc2c1n(Cc1cccc(C#N)c1)c1c(C(=O)O)cccc21 (centres unmarked) [Compound 13, 1-butyl-9-[(3-cyanophenyl)methyl]-2,3,4,9-tetrahydro-1H-carbazole-8-carboxylic acid] | B (between 10- to 99-fold) |
| CCCCC1CCCc2c(n(Cc3cccc(C#N)c3)c3c(C(=O)O)cccc23)C1 (centres unmarked) [Compound 2, 7-butyl-5-[(3-cyanophenyl)methyl]-5H,6H,7H, 8H,9H,10H-cyclohepta[b]indole-4-carboxylic acid] | A (reduced virus titers >100-fold) |
| CCCCCCC1CCCc2c(n(Cc3cccc(C#N)c3)c3c(C(=O)O)cccc23)C1 (centres unmarked) [Compound 6, 5-[(3-cyanophenyl)methyl]-7-hexyl-5H,6H,7H,8H,9H,10H-cyclohepta[b]indole-4-carboxylic acid] | A (reduced virus titers >100-fold) |
| Clc1ccc2nc(N3CCCCC3)c(-c3nnn[nH]3)c(-c3ccccc3)c2c1 [Compound 22, 6-chloro-4-phenyl-2-(piperidin-1-yl)-3-(1H-tetrazol-5-yl)quinoline, reference compound] | A (reduced virus titers >100-fold) |
| CCCCC1CCCCc2c1n(Cc1cccc(C#N)c1)c1c(C(=O)O)cccc21 (centres unmarked) [Compound 15, 6-butyl-5-[(3-cyanophenyl)methyl]-5H,6H,7H,8H,9H,10H-cyclohepta[b]indole-4-carboxylic acid] | B (between 10- to 99-fold) |
| CCCCCCC1CCc2c(n(Cc3ccccc3F)c3c(C(=O)O)cccc23)C1 (centres unmarked) [Compound 11, 9-[(2-fluorophenyl)methyl]-2-hexyl-2,3,4,9-tetrahydro-1H-carbazole-8-carboxylic acid] | A (reduced virus titers >100-fold) |
| CCCCC1Cc2c(n(Cc3cccc(C#N)c3)c3c(C(=O)O)cccc23)C1 (centres unmarked) [Compound 18, 2-butyl-4-[(3-cyanophenyl)methyl]-1H,2H,3H,4H-cyclopenta[b]indole-5-carboxylic acid] | C (between 2- to 9-fold) |
| CCCCCCC1CCc2c(n(Cc3cccnc3)c3c(C(=O)O)cccc23)C1 (centres unmarked) [Compound 9, 2-hexyl-9-[(pyridin-3-yl)methyl]-2,3,4,9-tetrahydro-1H-carbazole-8-carboxylic acid] | A (reduced virus titers >100-fold) |
| CCCCCCC1CCc2c(n(Cc3cccc(C#N)c3)c3c(C(=O)O)cccc23)C1 (centres unmarked) [Compound 8, 9-[(3-cyanophenyl)methyl]-2-hexyl-2,3,4,9-tetrahydro-1H-carbazole-8-carboxylic acid] | B (between 10- to 99-fold) |
| CCCCC1CCc2c(c3cccc(C(=O)O)c3n2Cc2cccc(C(N)=O)c2)C1 (centres unmarked) [Compound 20, 3-butyl-9-[(3-carbamoylphenyl)methyl]-2,3,4,9-tetrahydro-1H-carbazole-8-carboxylic acid] | C (between 2- to 9-fold) |
| CCCCC1CCc2c1n(Cc1cccc(C(N)=O)c1)c1c(C(=O)O)cccc21 (centres unmarked) [Compound 16, 3-butyl-4-[(3-carbamoylphenyl)methyl]-1H,2H,3H,4H-cyclopenta[b]indole-5-carboxylic acid] | C (between 2- to 9-fold) |
| CCCCC1CCCc2c(n(Cc3cccc(C(N)=O)c3)c3c(C(=O)O)cccc23)C1 (centres unmarked) [Compound 1, 7-butyl-5-[(3-carbamoylphenyl)methyl]-5H,6H,7H,8H,9H,10H-cyclohepta[b]indole-4-carboxylic acid] | B (between 10- to 99-fold) |
| CCc1c(-c2ccccc2)c(-c2ccccc2)nn1-c1ccccc1-c1cccc(OCC(=O)O)c1 [Compound 21, 2-((2′-(5-Ethyl-3,4-diphenyl-1H-pyrazol-1-yl)-[1,1′-biphenyl]-3-yl)oxy)acetic acid, reference compound] | C (between 2- to 9-fold) |
| CCCCC1CCCc2c1n(Cc1cccc(C(N)=O)c1)c1c(C(=O)O)cccc21 (centres unmarked) [Compound 12, 1-butyl-9-[(3-carbamoylphenyl)methyl]-2,3,4,9-tetrahydro-1H-carbazole-8-carboxylic acid] | C (between 2- to 9-fold) |
| CCCCCCC1CCc2c(n(Cc3cccc(C(N)=O)c3)c3c(C(=O)O)cccc23)C1 (centres unmarked) [Compound 7, 9-[(3-carbamoylphenyl)methyl]-2-hexyl-2,3,4,9-tetrahydro-1H-carbazole-8-carboxylic acid] | B (between 10- to 99-fold) |
| CCCCC1CCCc2c(n(Cc3ccccc3C)c3c(C(=O)O)cccc23)C1 (centres unmarked) [Compound 4, 7-butyl-5-[(2-methylphenyl)methyl]-5H,6H,7H,8H,9H,10H-cyclohepta[b]indole-4-carboxylic acid] | A (reduced virus titers >100-fold) |
| CCCCC1CCCc2c(n(Cc3ccc(C)cc3)c3c(C(=O)O)cccc23)C1 (centres unmarked) [Compound 3, 7-butyl-5-[(4-methylphenyl)methyl]-5H,6H,7H,8H,9H,10H-cyclohepta[b]indole-4-carboxylic acid] | B (between 10- to 99-fold) |
| Cc1c(Cl)cccc1OCc1cc(=O)n2nc(-c3ccccc3)nc2[nH]1 [Compound 23, 5-((3-chloro-2-methylphenoxy)methyl)-2-phenyl-[1,2,4]triazolo[1,5-a]pyrimidin-7(4H)-one, reference compound] | B (between 10- to 99-fold) |
| CCCCC1Cc2c(n(Cc3cccc(C(N)=O)c3)c3c(C(=O)O)cccc23)C1 (centres unmarked) [Compound 17, 2-butyl-4-[(3-carbamoylphenyl)methyl]-1H,2H,3H,4H-cyclopenta[b]indole-5-carboxylic acid] | C (between 2- to 9-fold) |
| CCCCCCC1CCCc2c(n(Cc3cccc(C(N)=O)c3)c3c(C(=O)O)cccc23)C1 (centres unmarked) [Compound 5, 5-[(3-carbamoylphenyl)methyl]-7-hexyl-5H,6H,7H,8H,9H,10H-cyclohepta[b]indole-4-carboxylic acid] | B (between 10- to 99-fold) |
| CCCCC1CCCCc2c1c1cccc(C(=O)O)c1n2Cc1cccc(C(N)=O)c1 (centres unmarked) [Compound 19, 10-butyl-5-[(3-carbamoylphenyl)methyl]-5H,6H,7H,8H,9H,10H-cyclohepta[b]indole-4-carboxylic acid] | C (between 2- to 9-fold) |
| CCCCC1CCCCc2c1n(Cc1cccc(C(N)=O)c1)c1c(C(=O)O)cccc21 (centres unmarked) [Compound 14, 6-butyl-5-[(3-carbamoylphenyl)methyl]-5H,6H,7H,8H,9H,10H-cyclohepta[b]indole-4-carboxylic acid] | B (between 10- to 99-fold) |
